From patent publication US10709705B2, “Aminopyrimidines as ALK inhibitors” (THE REGENTS OF THE UNIVERSITY OF MICHIGAN, priority 2016, dated 2020) come the findings set out here.

In series [1] the target is T1, wild-type human ALK protein (cytoplasmic domain, amino acid 1058-1620) (Homo sapiens, UniProt Q9UM73).
T1 construct: The cytoplasmic domain (amino acid 1058-1620) of wild-type human ALK protein; purchased Carna Biosciences, Inc (Japan)
Nature of the series: Wild-type ALK kinase inhibition, Lance TR-FRET assay. In kind it is biochemical. To be noted: Table 4; target not given; Cpd. No. 5 value equals WT ALK IC50 of Table 5; read-out: Inhibitory activity. The procedure:
The cytoplasmic domain (amino acid 1058-1620) of wild-type human ALK protein expressed as N-terminal GST-fusion protein was purchased from Carna Biosciences, Inc (Japan). Mutated ALK proteins were expressed in SF9 insect cells with N-terminal tags cleaved after purification. Kinase activities of all enzymes were assessed using a Lance® TR-FRET assay kit from Perkin Elmer Life Sciences (Waltham, Mass.). 2.5 μL of compound solution and 5 μL of protein solution were added into a black low volume 384 well microtiter plate which was incubated for 30 minutes with gentle shaking at room temperature, followed by adding 2.5 μL of fluorescently labeled peptide substrate (ULight™-IRS-1 (Tyr983) Peptide) and ATP mixture solution. The kinase reaction was performed in 50 mM HEPES (pH 7.5) with 1 mM EGTA, 1 mM MgCl2, and 2 mM DTT, 0.01% Tween-20 added right before the assay. Final concentrations of ATP, substrates, and DMSO were 100 μM, 20 nM, and 0.5%, respectively. […] Final ALK concentrations were 1 nM, 1 nM, InM, 128 nM, 2 nM, and 4 nM for wild-type, F1174L, L1196M, S1206Y, G1269A, and G1202R, respectively. The reaction was allowed to perform for 90 minutes in dark with gentle shaking at room temperature after which 10 μL of 20 mM EDTA and 2 nM Eu-W1024 anti-phosphotyrosine antibody (PT66) mixture solution in the detection buffer from the manufacturer was added to terminate the reaction and detect the phosphorylation of the peptide substrate. The final mixture was incubated in the dark for 1 hour before the plate was read on a Tecan Infinite M-1000 multi-mode plate reader (Tecan, Durham N.C.) with an excitation wavelength of 320 nm. Emission intensities were measured at both 620 and 665 nm with the intensity ratio between 665 and 620 nm corresponding to the peptide substrate phosphorylation. IC50 values of inhibitors were obtained by fitting the ratio of 665/620 nm vs inhibitor concentrations in a sigmoidal dose-response curve (variable slope) with a non-linear regression.

Another series concerns H3122 cells (EML4-ALK). The series is described as follows: Cell growth inhibition assay (WST-8), H3122. Type of series: cell-based. To be noted: Homo sapiens, NCI-H3122, read-out: H3122 (nM) (EML4-ALK), 50% of cell growth inhibition (IC50), WST-8, versus DMSO control. The procedure:
(§1) H3122 and Kappas-299 cells were purchased from American Type Culture Collection (Manassas, Va., USA) and were used within 2 months after initiating from original stocks. All cell lines were cultured as recommended. For cell growth inhibition assay, cells were treated with different concentrations of the tested compounds, diluted from stock to culture media containing a 0.2% DMSO as the final concentration. Cell viability was determined using the WST-8 cell proliferation assay kit (Dojindo Molecular Technologies) according to manufacturer's instructions. Three independent experiments in triplicates were performed.
Background: Tetrazolium dyes change colour on reduction, which living cells bring about.

The subject of series [2] is Kappas-299 cells (NPM-ALK). Nature of the series: Cell growth inhibition assay (WST-8), Kappas-299. Particulars: read-out: Kappas-299 (nM) (NPM-ALK), 50% of cell growth inhibition (IC50), WST-8, versus DMSO control. Type of series: cell-based. The method, then:
as §1

Series [3] concerns Human lymphoma cells, KARPAS 299 xenograft. The series is described as follows: KARPAS 299 xenograft tumor growth in SCID mice. Type of series: in vivo. Particulars: given orally, once daily for 3 weeks, FIG. 1. The method, then:
Cpd. Nos. 5 and 6 were dissolved in a solution of 98% PEG200: 2% TPGS (Sigma).
Human lymphoma cells, KARPAS 299 were maintained at 37° C., 95% air, 5% carbon dioxide in RPMI 1640 medium supplemented with 10% Fetal Bovine Serum, 100 units/ml of penicillin and 100 units/ml of streptomycin (GIBCO™, Invitrogen Corp.) and passaged twice weekly.
Tumor cells for xenografts were washed twice in PBS, and re-suspended in an ice cold mixture of 1:1 PBS and Matrigel (BD Biosciences, Invitrogen Corp.) for a final Matrigel protein concentration of 5 mg/ml. Cells at 5×10^6 cells in 0.1 ml were injected subcutaneously (s.c.) into the flank region of each mouse. All tumors were inoculated into SCID mice (strain:236 C.B-17 SCID, Charles River).
The size of tumors growing in the mice was measured in two dimensions using calipers. Tumor volume (mm^3)=(AxB^2)/2 where A and B are the tumor length and width (in mm), respectively. During treatment, tumor volume and body weight were measured three times a week. After the treatment was stopped, tumor volume and body weight was measured at least once a week.
Tumors were not allowed to exceed 10% of the animal's total body weight. If an animal had two or more tumors the total weight of all tumors were not allowed to exceed 10% of the animal's total body weight. […]

Series [4] in a line: Pharmacokinetics in SD rats. Type of series: in vivo. Particulars: 10 mg/kg, Table 8 (SD rats), PO 10 mg/kg. The method, then:
Routine pharmacokinetics studies were performed for Cpd. No. 5 in SD rats and beagle dogs.

T1 sequence (Q9UM73 1058-1620): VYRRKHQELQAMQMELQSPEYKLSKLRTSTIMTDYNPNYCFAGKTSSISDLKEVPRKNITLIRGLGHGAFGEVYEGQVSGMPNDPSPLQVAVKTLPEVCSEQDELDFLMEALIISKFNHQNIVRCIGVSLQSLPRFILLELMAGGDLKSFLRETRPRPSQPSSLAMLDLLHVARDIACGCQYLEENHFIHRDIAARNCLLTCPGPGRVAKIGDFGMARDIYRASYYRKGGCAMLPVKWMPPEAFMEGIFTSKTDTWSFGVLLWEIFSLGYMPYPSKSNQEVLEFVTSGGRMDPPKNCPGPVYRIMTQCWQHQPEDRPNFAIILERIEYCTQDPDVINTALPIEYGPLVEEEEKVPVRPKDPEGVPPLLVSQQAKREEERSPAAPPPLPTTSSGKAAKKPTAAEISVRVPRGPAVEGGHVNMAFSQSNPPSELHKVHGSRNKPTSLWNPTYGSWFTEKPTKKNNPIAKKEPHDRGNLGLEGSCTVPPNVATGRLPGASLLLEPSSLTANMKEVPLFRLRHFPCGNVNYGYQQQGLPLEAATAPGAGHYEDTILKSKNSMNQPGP

With `Cc1cc(Nc2ncc(Cl)c(Nc3ccccc3S(=O)(=O)C(C)C)n2)c(OC(C)C)cc1C1=C[C@H](C2CC2)N(C)[C@H](C2CC2)C1` (racemic) [compound 16, 5-chloro-N2-(4-((cis)-2,6-dicyclopropyl-1-methyl-1,2,3,6-tetrahydropyridin-4-yl)-2-isopropoxy-5-methylphenyl)-N4-(2-(isopropylsulfonyl)phenyl)pyrimidine-2,4-diamine], the IC50 came out at 6.3 nM in series [1], 160 nM with H3122 cells (EML4-ALK) and 97.7 nM in series [2].

`Cc1cc(Nc2ncc(Cl)c(Nc3ccccc3S(=O)(=O)C(C)C)n2)c(OC(C)C)cc1C1=C[C@H](C)N(C)[C@H](C)C1` (racemic) [compound 10, 5-chloro-N2-(2-isopropoxy-5-methyl-4-((cis)-1,2,6-trimethyl-1,2,3,6-tetrahydropyridin-4-yl)phenyl)-N4-(2-(isopropylsulfonyl)phenyl)pyrimidine-2,4-diamine]: the IC50 was 0.98 nM in series [1], 54.9 nM in the series with H3122 cells (EML4-ALK) and 37.5 nM in series [2].

Turning to `Cc1cc(Nc2ncc(Cl)c(Nc3ccccc3S(=O)(=O)C(C)C)n2)c(OC(C)C)cc1C1=CCN(C2COC2)CC1` [compound 6, 5-chloro-N2-(2-isopropoxy-5-methyl-4-(1-(oxetan-3-yl)-1,2,3,6-tetrahydropyridin-4-yl)phenyl)-N4-(2-(isopropylsulfonyl)phenyl)pyrimidine-2,4-diamine], in series [3], the “tumor growth in the KARPAS 299 xenograph model” value is recorded as “inhibit tumor growth”.

For `Cc1cc(Nc2ncc(Cl)c(Nc3ccccc3S(=O)(=O)C(C)C)n2)c(OC(C)C)cc1C1=CC(C)(C)NC(C)(C)C1` [compound 2, 5-chloro-N2-(2-isopropoxy-5-methyl-4-(2,2,6,6-tetramethyl-1,2,3,6-tetrahydropyridin-4-yl)phenyl)-N4-(2-(isopropylsulfonyl)phenyl)pyrimidine-2,4-diamine], the IC50 in series [1] came out at 4.4 nM; with H3122 cells (EML4-ALK), 132 nM; in series [2], 39 nM.

Regarding `Cc1cc(Nc2ncc(Cl)c(Nc3ccccc3S(=O)(=O)C(C)C)n2)c(OC(C)C)cc1C1=C[C@H](C2CC2)N[C@H](C2CC2)C1` (racemic) [compound 15, 5-chloro-N2-(4-((cis)-2,6-dicyclopropyl-1,2,3,6-tetrahydropyridin-4-yl)-2-isopropoxy-5-methylphenyl)-N4-(2-(isopropylsulfonyl)phenyl)pyrimidine-2,4-diamine], the results for the IC50 (in series [1]; with H3122 cells (EML4-ALK); in series [2]) were 6.6 nM, 196 nM and 121 nM, respectively.

For the compound `Cc1cc(Nc2ncc(Cl)c(Nc3ccccc3S(=O)(=O)C(C)C)n2)c(OC(C)C)cc1C1=C[C@H](C)N[C@H](C)C1` (racemic) [compound 9, 5-chloro-N2-(4-((cis)-2,6-dimethyl-1,2,3,6-tetrahydropyridin-4-yl)-2-isopropoxy-5-methylphenyl)-N4-(2-(isopropylsulfonyl)phenyl)pyrimidine-2,4-diamine], the IC50 in series [1] was found to be 1.1 nM; with H3122 cells (EML4-ALK), 54.9 nM; in series [2], 35.9 nM.

On to `Cc1cc(Nc2ncc(Cl)c(Nc3ccccc3S(=O)(=O)C(C)C)n2)c(OC(C)C)cc1C1=CC(C)(C)N(C)C(C)(C)C1` [compound 1, 5-chloro-N2-(2-isopropoxy-5-methyl-4-(1,2,2,6,6-pentamethyl-1,2,3,6-tetrahydropyridin-4-yl)phenyl)-N4-(2-(isopropylsulfonyl)phenyl)pyrimidine-2,4-diamine], for which the IC50 was 1.8 nM in series [1], 92 nM in the series with H3122 cells (EML4-ALK) and 30 nM in series [2].

`Cc1cc(Nc2ncc(Cl)c(Nc3ccccc3S(=O)(=O)C(C)C)n2)c(OC(C)C)cc1C1=CCN(C2CCOCC2)CC1` [Cpd. No. 5 (mesylate), 5-chloro-N2-(2-isopropoxy-5-methyl-4-(1-(tetrahydro-2H-pyran-4-yl)-1,2,3,6-tetrahydropyridin-4-yl)phenyl)-N4-(2-(isopropylsulfonyl)phenyl)pyrimidine-2,4-diamine]: the half-life in series [4] (Sprague-Dawley, rat, in vivo, po, read-out: t1/2 (h) PO (converted)) is 3.84 h. In series [4], the “AUC0-t (ng · h/mL) PO” value came to 958 ng·h/mL, the “AUC0-∞ (ng · h/mL) PO” value turned out to be 971 ng·h/mL, the “Cmax(ng/mL) PO” value was determined as 127 ng/mL and the “Tmax (h) PO” value is listed as 1.0 h.
